Test results taken from the supplement of paper PMC13380429.
Structures can show the parent of a compound that is named as a salt.

Assays:
Settings in all cases: 72 h
HepG2 [1] = experiment: drug sensitivity score (DSS) for viability; higher = more toxic; extreme values may be limits of the assay
Calu-3 [2] = experiment: as above
Caco-2 [3] = experiment: as above
Vero E6 [4] = experiment: as above
U2OS [5] = experiment: as above
HepG2 [6] = experiment: relative viability EC50 (midpoint between 100% and the lowest measured viability); higher = less toxic
Calu-3 [7] = experiment: as above
Caco-2 [8] = experiment: as above
Vero E6 [9] = experiment: as above
U2OS [10] = experiment: as above
HepG2 [11] = experiment: cell viability relative to DMSO; higher = less toxic
Calu-3 [12] = experiment: as above
Caco-2 [13] = experiment: as above
Vero E6 [14] = experiment: as above
U2OS [15] = experiment: as above

Structure (SMILES)	drug sensitivity score (HepG2 [1])	drug sensitivity score (Calu-3 [2])	drug sensitivity score (Caco-2 [3])	drug sensitivity score (Vero E6 [4])	drug sensitivity score (U2OS [5])	relative viability EC50 (HepG2 [6]) [µM]	relative viability EC50 (Calu-3 [7]) [µM]	relative viability EC50 (Caco-2 [8]) [µM]	relative viability EC50 (Vero E6 [9]) [µM]	relative viability EC50 (U2OS [10]) [µM]	cell viability (HepG2 [11]; 1 nM) [%]	cell viability (HepG2 [11]; 10 nM) [%]	cell viability (HepG2 [11]; 100 nM) [%]	cell viability (HepG2 [11]; 1000 nM) [%]	cell viability (HepG2 [11]; 10000 nM) [%]	cell viability (Calu-3 [12]; 1 nM) [%]	cell viability (Calu-3 [12]; 10 nM) [%]	cell viability (Calu-3 [12]; 100 nM) [%]	cell viability (Calu-3 [12]; 1000 nM) [%]	cell viability (Calu-3 [12]; 10000 nM) [%]	cell viability (Caco-2 [13]; 1 nM) [%]	cell viability (Caco-2 [13]; 10 nM) [%]	cell viability (Caco-2 [13]; 100 nM) [%]	cell viability (Caco-2 [13]; 1000 nM) [%]	cell viability (Caco-2 [13]; 10000 nM) [%]	cell viability (Vero E6 [14]; 1 nM) [%]	cell viability (Vero E6 [14]; 10 nM) [%]	cell viability (Vero E6 [14]; 100 nM) [%]	cell viability (Vero E6 [14]; 1000 nM) [%]	cell viability (Vero E6 [14]; 10000 nM) [%]	cell viability (U2OS [15]; 1 nM) [%]	cell viability (U2OS [15]; 10 nM) [%]	cell viability (U2OS [15]; 100 nM) [%]	cell viability (U2OS [15]; 1000 nM) [%]	cell viability (U2OS [15]; 10000 nM) [%]
CC(C)c1c2cc(-c3ccnc(N[C@H]4CC[C@H](NC5CCOCC5)CC4)n3)ccc2nn1C	19.1	7.7	9.6	7.6	12	0.18	0.719	0.589	2	0.851	98.9	101	83.2	10.1	9.8	105	107	108	60.3	43.3	94.6	96.6	94.8	53.6	31.3	93.8	96.7	88	86	4.7	99	95	99.8	42.8	4.6
CCc1c(C(=O)NCCc2ccc(N3CCCCC3)cc2)[nH]c2ccc(Cl)cc12	0	0	0	0	0	> 10	> 10	> 10	> 10	> 10	97.4	107	92.3	105	99.4	95.8	97.5	93.4	100	101	98.7	94	95.2	90.6	91	97.6	96.4	105	100	96	98	93.9	98.8	95.2	98.6
CN(C)C(=O)n1nnnc1Cc1ccc(-c2ccccc2)cc1	3	2.3	2.8	3.7	4.5	3.19	3.91	3.62	3.32	3.44	125	108	110	100	43.3	102	98	95.2	111	44.9	106	106	100	106	40.1	107	106	103	102	29.1	102	105	102	104	13.6
CNC(=O)Nc1ccc(-c2nc(N3CC4CCC(C3)O4)c3cnn(C4CCC5(CC4)OCCO5)c3n2)cc1	20.8	25.1	19.5	14.1		0.0648	0.0122	0.0381	0.109		98.6	97.6	47.1	31.2	20.8	94.2	67.2	36.7	28	30.7	111	85.1	50.6	32.3	33.1	94.1	93	70.1	43.8	36.4					
COC(=O)c1cnn(-c2ccc(F)cc2F)c1/C=N/NC(=S)NC(C)(C)C	0	0.3	0	0	0	> 10	> 10	> 10	> 10	> 10	112	107	98.4	94.3	105	101	101	97.4	89.1	89.6	102	90.6	102	105	93.9	106	101	95.9	96.1	98.8	98.6	98.3	104	98	103
COc1cc(N)c(Cl)cc1C(=O)OCCN1CCCCC1	0	0	0	0	0	> 10	> 10	> 10	> 10	> 10	112	96.9	106	94.9	103	93.8	108	102	103	102	88.3	97.6	86	100	110	96.3	97.3	98.7	99.3	99.5	93.9	99	95.5	100	108
COc1ccc(CN2C(=O)C(=O)c3cc(OC(F)(F)F)ccc32)cc1	2.9	5.7	5.4	6.2	14.6	3.43	1.43	1.66	1.75	0.374	97.7	108	109	103	41.8	98.3	96.7	110	83	41.7	90.2	100	89.8	85.5	38.8	107	107	103	86	28.8	99	99.7	92.8	25.8	13.4
Cc1cccc(Oc2nc3c(C)cccn3c(=O)c2/C=C(\C#N)c2nc3ccccc3s2)c1	0	0	0	0	0	> 10	> 10	> 10	> 10	> 10	100	90.2	101	94.6	100	97	94.1	98.6	102	112	93.1	98.3	98.3	94	98.6	103	95.5	99.4	91.4	106	95.2	99.1	96	102	106
Cc1ccccc1N1CCN(S(=O)(=O)C[C@]23CC[C@H](C[C@@H]2NC(=O)[C@@H](N)CCS(C)(=O)=O)C3(C)C)CC1	0	0	0	0	0	> 10	> 10	> 10	> 10	> 10	109	94.7	107	111	108	98.2	103	94.3	105	99.5	97.5	93.3	90	108	96.5	101	93.8	98	87.6	110	95.3	96.4	95.8	101	103
O=C(Nc1cccc(Cl)c1)c1ccccn1	0	0	0	0	0	> 10	> 10	> 10	> 10	> 10	111	100	105	97.3	107	94.5	95.8	95.9	114	102	87.9	102	98	96.8	102	107	102	107	99.3	103	102	104	99.8	108	101
O=C1NN(C(=O)Nc2ccc(Br)cc2)[C@@H](c2ccccc2)[C@@H]1c1ccccc1	0	0.3	0		0	> 10	> 10	> 10		> 10	104	89.3	91.1	106	89.1	96.5	90.4	93.8	91.2	86	103	98.8	100	98.6	96.7						97.3	95.4	98.5	94.8	101
N=C(N)Nc1ccc(Cl)cc1 [4-chlorophenylguanidine]	0	0	0		0	> 10	> 10	> 10		> 10	99.6	99.2	107	115	93.2	93	89.4	94.6	91.7	102	103	100	97	95.1	95.6						102	95.9	99.7	96.5	101
Nc1nc(NC2CC2)c2ncn([C@H]3C=C[C@@H](CO)C3)c2n1 [ABACAVIR SULFATE]	0	0	0		0	> 10	> 10	> 10		> 10	101	95.2	97.7	90.3	96	89.4	96.3	97.7	100	97.1	102	104	94.3	98.4	95.1						99.9	102	97.1	106	99.7
O=C(/C=C/c1ccc2ccccc2n1)c1ccncc1 [PFK-015]	8	2.5	5.5	6.2	6.4	1.99		2.09	2.68	2.69	106	89.6	110	85	0.1	107	105	88	97	59.2	93.3	96.3	95.8	90.6	29.7	101	94.9	98	94.1	4.2	93	94.8	95.4	94	0
